Holding throughout (type): biochemical
In assay [1] the test system is Factor IX deficient plasma. Description: relative coagulant activity of factor IX proteins (zymogens). The settings on record: for relative coagulant activity: factor IX proteins before activation, IXNP = 100%. The source says:
The following reagents were used. Benzoyl-Ile-Glu-Gly-Arg-p-nitroanilide (SEQ ID NO: 17) (S-2222) was purchased from Helena Laboratories. Dansyl-Glu-Gly-Arg-chloromethyl ketone (DEGR-ck) was obtained from Calbiochem. Phosphatidylcholine, phosphatidylserine, recombinant hirudin, and fatty acid free bovine serum albumin (BSA) were obtained from Sigma Chemical Co. Factor IX and factor VIII deficient plasmas were purchased from George King Biomedicals and aPTT reagent was obtained from Diagnostica Stago. Normal human plasma factor IX (IXNP) and factor X were isolated as described in Bajaj and Birktoft, 1993, Methods Enzymol. 222, 96–128, and factor Xa was prepared as described in Bajaj et al., 1981, Prep. Biochem. 11, 397–412. Purified human factor XIa, protein C, activated protein C, and α-thrombin (IIa) were purchased from Enzyme Research Laboratories (South Bend, Ind.). Recombinant human tissue factor of aa 1–243 containing the transmembrane domain was generously provided by Genentech Inc. (South San Francisco, Calif.) and reconstituted as described in Sabharwal et al., 1995, J. Biol. Chem. 270, 15523–15530. Phosphatidylcholine-phosphatidylserine vesicles (75% phosphatidylcholine, 25% phosphatidylserine) were prepared by the method of Husten et al., 1987, J. Biol. Chem. 262, 12953–12966 as outlined in Sabharwal et al (Id.). Recombinant human factor VIIa was a generous gift of Novo-Nordisk (Copenhagen). Purified human factor VIII was obtained from Dr. Leon Hoyer (American Red Cross, Rockville, Md.). The preparation was free of all other coagulation factors and contained human albumin as a stabilizing agent. Purification of a mouse monoclonal antibody (mAb) that inhibits the interaction of factor IXa with factor VIIIa was as described in Bajaj et al., 1985, J. Biol. Chem. 260:11574–11580. […]

Assay [2] concerns the target T1, factor VIIIa (Homo sapiens, UniProt P00451).
T1 construct: purchased Dr. Leon Hoyer (American Red Cross, Rockville, Md.)
T1 sequence (P00451 20-759 limits assumed): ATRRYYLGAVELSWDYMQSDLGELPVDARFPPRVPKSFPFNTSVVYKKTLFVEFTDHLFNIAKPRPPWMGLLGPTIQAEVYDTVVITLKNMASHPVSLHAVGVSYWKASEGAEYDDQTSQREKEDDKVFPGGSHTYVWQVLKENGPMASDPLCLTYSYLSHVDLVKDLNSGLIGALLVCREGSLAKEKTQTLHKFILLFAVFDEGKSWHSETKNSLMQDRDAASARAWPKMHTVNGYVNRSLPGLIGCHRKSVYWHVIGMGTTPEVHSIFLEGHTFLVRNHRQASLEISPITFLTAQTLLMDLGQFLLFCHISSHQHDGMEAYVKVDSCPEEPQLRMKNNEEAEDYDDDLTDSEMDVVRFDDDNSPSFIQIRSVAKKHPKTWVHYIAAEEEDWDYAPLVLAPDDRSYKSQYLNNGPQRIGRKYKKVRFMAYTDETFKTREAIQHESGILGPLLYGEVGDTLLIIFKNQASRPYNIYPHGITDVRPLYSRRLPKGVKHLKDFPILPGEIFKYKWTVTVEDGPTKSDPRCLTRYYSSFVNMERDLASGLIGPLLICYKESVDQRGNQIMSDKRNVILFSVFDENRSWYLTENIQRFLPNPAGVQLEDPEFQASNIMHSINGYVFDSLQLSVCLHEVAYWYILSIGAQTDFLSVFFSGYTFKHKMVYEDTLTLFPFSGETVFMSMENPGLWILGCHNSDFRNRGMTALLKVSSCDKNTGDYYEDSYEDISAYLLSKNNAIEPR
T1 sequence (P00451 1668-2351 limits assumed): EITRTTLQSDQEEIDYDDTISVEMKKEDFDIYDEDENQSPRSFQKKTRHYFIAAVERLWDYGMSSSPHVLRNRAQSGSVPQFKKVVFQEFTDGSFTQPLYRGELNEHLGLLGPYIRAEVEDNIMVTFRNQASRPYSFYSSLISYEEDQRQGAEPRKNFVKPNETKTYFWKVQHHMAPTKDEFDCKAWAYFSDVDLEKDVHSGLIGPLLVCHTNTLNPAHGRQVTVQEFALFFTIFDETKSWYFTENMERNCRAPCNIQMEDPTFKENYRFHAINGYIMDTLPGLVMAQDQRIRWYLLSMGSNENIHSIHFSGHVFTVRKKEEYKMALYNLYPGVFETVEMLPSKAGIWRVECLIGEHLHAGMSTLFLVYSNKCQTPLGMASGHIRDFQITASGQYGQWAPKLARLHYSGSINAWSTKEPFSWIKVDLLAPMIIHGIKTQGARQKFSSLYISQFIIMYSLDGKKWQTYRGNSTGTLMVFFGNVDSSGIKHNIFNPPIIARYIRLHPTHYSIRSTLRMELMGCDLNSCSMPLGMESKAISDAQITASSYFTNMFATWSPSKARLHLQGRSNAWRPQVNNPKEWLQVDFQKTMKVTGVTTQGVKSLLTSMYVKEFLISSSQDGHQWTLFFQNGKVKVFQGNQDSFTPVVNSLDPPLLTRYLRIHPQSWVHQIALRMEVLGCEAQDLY
Briefly: inhibition of Xa generation by active site-blocked (DEGR) IXa proteins, presence of phospholipid (Kd,app for VIIIa). The settings on record: presence of phospholipid. On the procedure:
(§1) Apparent Kds of factor VIIIa binding to various active site-blocked factor IXa proteins were determined from inhibition experiments as detailed in Mathur et al., 1997, supra. […] Reactions were carried out for 2 min and the rates of factor X activation were measured as outlined above.
(§2) Various DEGR-ck-inhibited factor IXa proteins were prepared for these experiments as follows. IXNP, IXWT, and each mutant factor IX at 200 μg/ml was activated by factor XIa (2 μg/ml) for 90 min. in TBS, pH 7.4 (0.05 M Tris, 0.15 M NaCl, pH 7.4) containing 5 mM Ca^2+.
(§3) Enzymol. 74, 481–508 given below:
(§4) [formula] where y is the rate of Xa formation in the presence of a given concentration of DEGR-IXa protein represented by x, a is the maximum rate of Xa formation in the absence of DEGR-IXa, and s is the slope factor. Each point was weighted equally and the data were fitted to Equation 1 using the nonlinear regression analysis program obtained from Erithacus Software (GraFit). […] To obtain the Kd,app values for the interaction of DEGR-IXa proteins with factor VIIIa, the following equation was used, as described by Cheng and Prusoff, 1973, Biochem. Pharmacol. 22, 3099–3108 and further discussed by Craig, 1993, Trends Pharmacol. Sci. 6, 68–71.

Assay [3] concerns the target T1, factor VIIIa. Description: inhibition of Xa generation by active site-blocked (DEGR) IXa proteins, absence of phospholipid (Kd,app for VIIIa). Conditions: absence of phospholipid. As for the experimental part: as §1, §2, §3, §4
Assay [4] relates to Factor IX deficient plasma. Briefly: coagulant activity of XIa-activated IXa proteins.
Assay [5] has as its target T2, factor X (Homo sapiens, UniProt P00742). Description: factor X activation in complete intrinsic Tenase system (IXa, Ca2+, phospholipid, VIIIa). More on the design: Normal human plasma factor IX (IXNP) and factor X were isolated as described in Bajaj and Birktoft; from tissue; host or cells: human plasma (factor X); factor VIII obtained from Dr. Leon Hoyer, American Red Cross. The settings on record: VIIIa increased from 70 pM to 14 nM, phospholipid present. As for the experimental part:
(§5) The ability of each activated mutant to activate factor X in the presence and absence of phospholipid and factor VIIIa was determined as follows. The activation was carried out at 37° C. in a 50 μl reaction volume, in TBS/BSA pH 7.4, for various time periods. At the end of the incubation time period, each reaction mixture received 1 μl of 0.5 M EDTA to stop further generation of factor Xa. A 40 μL aliquot was then added to 0.1 ml quartz cuvette containing S-2222 in 75 μL of TBS/BSA, pH 7.4. The final concentration of S-2222 was 100 μM. The p-nitroaniline release was measured continuously (ΔA405/min) for up to 20 min (Sabharwal et al., 1995 supra; Sabharwal et al., 1997, supra). Factor Xa generated was calculated from a standard curve constructed using factor Xa prepared from insolubilized Russell's viper venom.
(§6) Factor X activation measurements were made under four experimental regimes. In one, Ca^2+ and phospholipid were present. In this system activation was carried out for 5–15 minutes and the concentration of each IXa protein was 20 nM, phospholipid was 25 μM, and factor X was 100 nM. In the second regime, Ca^2+, phospholipid and factor VIIIa were present. […] In the third regime, only Ca^2+ was present. Here, activation was carried out for 2–20 min and concentration of each IXa protein was 400 nM and factor X was 1 μM. Finally, in the fourth regime, Ca^2+ and VIIIa were present. Here, activation was carried out for 15–120 sec and the concentration of each IXa protein was 2 μM, VIIIa was 14 nM, and factor X was 400 nM.
(§7) In all of the above factor X activation experiments, the incubation times chosen were those in which the factor Xa generated was always less than 10 nM. This precautionary measure was taken to prevent activation of factor X by the generated factor Xa (see, e.g., Link. and Castellino, 1982, Arch Biochem. Biophys. 215, 215–221). Further, in those incubation mixtures which contained […], control experiments were also performed in which factor VIIIa was omitted. […] In the presence of factor VIIIa, 10 μM phospholipid was used based upon previous observations (Mathur et al., 1997, supra; van Dieijen et al., 1981, J. Biol. Chem. 256, 3433–3442). The concentrations of factor X selected for each set of reaction conditions are those which are below or at the Km values (van Dieijen et al., supra; Fay and Koshibu, 1998, J Biol. Chem. 273, 19049–19054). In this region of the Michaelis-Menton curve, the rate of formation of factor Xa is proportional to the substrate factor X and therefore to the affinity of the factor IXa enzyme for factor X.
Next, the activation of factor X in a complete intrinsic Tenase system (IXa, Ca^2+, phospholipid, VIIIa) was studied.

Assay [6] has as its target T2, factor X. Briefly: factor X activation by IXa proteins, Ca2+ and VIIIa, no phospholipid. More on the design: Normal human plasma factor IX (IXNP) and factor X were isolated as described in Bajaj and Birktoft; from tissue; host or cells: human plasma (factor X); factor VIII obtained from Dr. Leon Hoyer, American Red Cross. Conditions: 14 nM VIIIa, 400 nM factor X. On the procedure: as §5, §6, §7

The values below come from US7109170B2, “Region of factor IXa protease domain that interacts with factor VIIIa and methods therefor” (Saint Louis University, priority 1999, dated 2006).

T2 sequence (P00742 183-488 limits assumed, one chain of several): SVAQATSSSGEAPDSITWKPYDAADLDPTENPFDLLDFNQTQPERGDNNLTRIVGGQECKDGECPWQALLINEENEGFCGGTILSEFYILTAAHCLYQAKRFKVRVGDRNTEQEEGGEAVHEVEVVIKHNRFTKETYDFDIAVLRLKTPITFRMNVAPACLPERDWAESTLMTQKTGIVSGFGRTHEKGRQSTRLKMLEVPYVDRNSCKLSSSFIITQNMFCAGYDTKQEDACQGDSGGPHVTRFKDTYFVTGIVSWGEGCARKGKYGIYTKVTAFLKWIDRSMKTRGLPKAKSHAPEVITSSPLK
T2 sequence (P00742 41-179 limits assumed, one chain of several): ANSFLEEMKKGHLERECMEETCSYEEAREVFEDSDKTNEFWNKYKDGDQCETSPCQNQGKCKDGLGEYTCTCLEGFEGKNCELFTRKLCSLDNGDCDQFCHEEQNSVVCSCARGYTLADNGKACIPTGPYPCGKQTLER

In the case of “IXR338Q: recombinant factor IX point mutant R338Q”, in assay [1], the relative coagulant activity is given as about 65%.
As for “protein C: Purified human protein C, control protein [reference compound]”, the “competition with IXa in binding to VIIIa / interaction with VIIIa” value in the assay with factor VIIIa [2] and with factor VIIIa [3] was “neither protein C nor DEGR-activated protein C competed with IXa in binding to VIIIa” in each case.
As to “IXahelixVII: activated factor IX chimera with helix 330–338 replaced by factor VII residues”, in assay [4], the “coagulant activity as compared to IXaNP” value is on record as “not measurable”. Further, the “rate of factor X activation at increased VIIIa” value (shortened to “rate … at increased VIIIa”) with factor X [5] was “not measurable”.
Regarding “IXR333Q: recombinant factor IX point mutant R333Q”, the relative coagulant activity in assay [1] is on record as about 0.5%.
For “IXaL337I: activated factor IX mutant L337I”, the “coagulant activity as compared to IXaNP” value in assay [4] was about 0.8%. In addition, the “rate … at increased VIIIa” value with factor X [5] is listed as about 3.2 nM/min.
In assay [1], IXNP: Normal human plasma factor IX registered a relative coagulant activity of 100%. For the same substance, the “coagulant activity (specific)” value in assay [1] (plasma factor IX) came out at 180±10 units/mg.
“IXL3301: recombinant factor IX point mutant L330I in helix-330 of protease domain” showed a relative coagulant activity in assay [1] of about 8%.
Turning to “IXT335A: recombinant factor IX point mutant T335A”, the relative coagulant activity in assay [1] was about 40%.
In assay [1], “IXWT: recombinant wild-type factor IX [reference compound]” came in with a relative coagulant activity of about 90%.
Turning to “IXD332Y: recombinant factor IX point mutant D332Y”, in assay [1], the relative coagulant activity is about 2%.
Turning to “IXaWT: factor XIa-activated recombinant wild-type factor IX [reference compound]”, the “coagulant activity as compared to IXaNP” value in assay [4] is about 95%.
“IXaR338Q: activated factor IX mutant R338Q”: in assay [4], the “coagulant activity as compared to IXaNP” value was about 80%. Besides, the “X-activation rate, PL-minus system” value with factor X [6] is reported as 2.22 ± 0.15 nM/min.
As for “IXaR333Q: activated factor IX mutant R333Q”, the “coagulant activity as compared to IXaNP” value in assay [4] is listed as about 0.6%. Moreover, the “rate … at increased VIIIa” value in the assay with factor X [5] is about 2.4 nM/min.
“IXaD332Y: activated factor IX mutant D332Y”: the “coagulant activity as compared to IXaNP” value in assay [4] is given as about 2%. In addition, in the assay with factor X [5], the “rate … at increased VIIIa” value was about 4.1 nM/min.
In the case of “IXaR333L: activated factor IX mutant R333L”, in assay [4], the “coagulant activity as compared to IXaNP” value is recorded as about 0.4%. The “rate … at increased VIIIa” value with factor X [5] is about 2.7 nM/min.
“IXL337I: recombinant factor IX point mutant L337I”: the relative coagulant activity in assay [1] was about 1%.
Same read-out and setting: the value for “IXR333L: recombinant factor IX point mutant R333L” was 0.3%.
